“Also recorded” adds a separate entry of the source.
Experiments:
[1] = test system: BT474 cells highly sensitive to trastuzumab; assay: Viable cell count after HER2 inhibitor addition (no siRNA), high sensitive cell line; type: cell-based, human; conditions: 5 days; for growth suppression: 1 μmol/L, no siRNA; for concentration dependence of growth (proliferation) suppression: range of final concentrations, similar level in both lines
Method: (§1) After culture for 5 days at 37° C., 5% CO2, the number of viable cells was counted.

[2] = test system: trastuzumab low sensitive BT-474 cells; assay: Viable cell count after HER2 inhibitor addition (no siRNA), low sensitive cell line; type: cell-based, human; conditions: 5 days; for growth suppression: 1 μmol/L, no siRNA; for concentration dependence of growth (proliferation) suppression: range of final concentrations, similar level in both lines
Method: as §1

Structure (SMILES) | growth suppression [1] | concentration dependence of growth (proliferation) suppression [1] | growth suppression [2] | concentration dependence of growth (proliferation) suppression [2]
CS(=O)(=O)CCNCc1ccc(-c2ccc3ncnc(Nc4ccc(OCc5cccc(F)c5)c(Cl)c4)c3c2)o1 [lapatinib] | complete suppression of growth | suppressed in a concentration-dependent manner; also recorded: concentration-dependent growth suppression | complete suppression of growth | suppressed in a concentration-dependent manner; also recorded: concentration-dependent growth suppression
CC(C)(O)CC(=O)NCCn1ccc2ncnc(Nc3ccc(Oc4cccc(C(F)(F)F)c4)c(Cl)c3)c21 [compound A, N-{2-[4-({3-chloro-4-[3-(trifluoromethyl)phenoxy]phenyl}amino)-5H-pyrrolo[3,2-d]pyrimidin-5-yl]ethyl}-3-hydroxy-3-methylbutanamide] | complete suppression of growth | suppressed in a concentration-dependent manner; also recorded: concentration-dependent growth suppression | complete suppression of growth | suppressed in a concentration-dependent manner; also recorded: concentration-dependent growth suppression
